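Growth conditions: 96-well plates. Treatment: test compound, 48 hours, 5 concentrations. Analysis: linear interpolation between bracketing concentrations; unreached endpoints set to highest concentration. GI50: concentration for 50% inhibition of growth.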 The source made the active and inactive calls. No stated cut-off is given here; in the data, active = GI50 up to about 1.1 µM and inactive = higher.
Columns and labels:
Assay in all cases: NCI-60 cell line screen, 48 h
[1] = test system: SR
[2] = test system: COLO 205
[3] = test system: M14
[4] = test system: NCI-H226
[5] = test system: MDA-MB-231
[6] = test system: 786-0
[7] = test system: DU-145
[8] = test system: TK-10
[9] = test system: Malme-3M
[10] = test system: RPMI-8226
[11] = test system: UACC-62
[12] = test system: OVCAR-4
[13] = test system: HCT-15
[14] = test system: SK-MEL-5
[15] = test system: OVCAR-8
[16] = test system: UO-31
[17] = test system: SF-539
[18] = test system: HOP-62
[19] = test system: HT-29

SMILES | GI50 [1] | GI50 [2] | GI50 [3] | GI50 [4] | GI50 [5] | GI50 [6] | GI50 [7] | GI50 [8] | GI50 [9] | GI50 [10] | GI50 [11] | GI50 [12] | GI50 [13] [µM] | GI50 [14] | GI50 [15] | GI50 [16] | GI50 [17] | GI50 [18] | GI50 [19]
C[C@H]1CC[C@@]2(OC1)O[C@H]1C[C@H]3[C@@H]4CC[C@@H]5C[C@@H](OC6OC(CO)C(O)C(O)C6OC6OC(CO)C(O)C(O)C6O)CC[C@]5(C)[C@H]4CC[C@]3(C)[C@H]1[C@@H]2C (stereo partly specified) | 2.07 µM (inactive) | 1.9 µM (inactive) | 2.06 µM (inactive) | 2.34 µM (inactive) | 2.09 µM (inactive) | 2.01 µM (inactive) | 2.34 µM (inactive) | 1.94 µM (inactive) | 2.62 µM (inactive) | 1.9 µM (inactive) | 2.4 µM (inactive) | 2.33 µM (inactive) | 1.99 | 2.18 µM (inactive) | 2.45 µM (inactive) | 1.99 µM (inactive) | 2.03 µM (inactive) | 2.25 µM (inactive) | 2 µM (inactive)
CC(C)(C)c1cc(OCc2nn3c(Cc4ccccc4)nnc3s2)c(Cl)cc1OCc1nn2c(Cc3ccccc3)nnc2s1 | 39.9 µM (inactive) | 24.7 µM (inactive) | 29.7 µM (inactive) | > 100 µM (inactive) | 33.3 µM (inactive) | 30 µM (inactive) | 30.5 µM (inactive) | 34.4 µM (inactive) | 12 µM (inactive) | 10.6 µM (inactive) | 24.1 µM (inactive) | 19.8 µM (inactive) | 19.6 | 8.65 µM (inactive) | 25.3 µM (inactive) | 31.1 µM (inactive) | 55.5 µM (inactive) | 94.2 µM (inactive) | 23.3 µM (inactive)
O=C1NCCN1/N=C/c1c(Cl)n(-c2ccccc2)c2ccccc12 | 28 µM (inactive) | 14.3 µM (inactive) | 17.5 µM (inactive) | 20.4 µM (inactive) | 13.6 µM (inactive) | 26.1 µM (inactive) | 14.6 µM (inactive) | 14.8 µM (inactive) | 16.6 µM (inactive) | 22.4 µM (inactive) | 16 µM (inactive) | 48.1 µM (inactive) | 17.6 | 15.5 µM (inactive) | 22.3 µM (inactive) | 19.1 µM (inactive) | 10.4 µM (inactive) | 94.4 µM (inactive) | 17.4 µM (inactive)
COc1ccc(N2C(=O)C3c4[nH]c5ccc(OCc6ccccc6)cc5c4C4CCC(c5ccccc5)CC4C3C2=O)cc1 (stereo unspecified) | 2.37 µM (inactive) | 10.8 µM (inactive) | 6.78 µM (inactive) | 19.2 µM (inactive) | 6.35 µM (inactive) | 2.67 µM (inactive) | 8.07 µM (inactive) | 7.55 µM (inactive) | 2.35 µM (inactive) | 6.61 µM (inactive) | 6.95 µM (inactive) | 1.19 µM (inactive) | 11.6 | 8.22 µM (inactive) | 8.91 µM (inactive) | 53.6 µM (inactive) | 3.01 µM (inactive) | 3.37 µM (inactive) | 11 µM (inactive)
O=C1Nc2ccccc2/C1=C/c1c(Cl)[nH]c2ccc(O)cc12 | 0.177 µM (active) | 2.07 µM (inactive) | 1.36 µM (inactive) | 1.08 µM (active) | 1.79 µM (inactive) | 3.27 µM (inactive) | 1.78 µM (inactive) | 10.7 µM (inactive) | 0.736 µM (active) | 3.43 µM (inactive) | 0.681 µM (active) | 3.94 µM (inactive) | 0.971 | 1.21 µM (inactive) | 2.93 µM (inactive) | 3.9 µM (inactive) | 0.544 µM (active) | 2.59 µM (inactive) | 3.16 µM (inactive)
C[C@@]1(O)C[C@@H](N2C(=O)O[C@@H](c3ccccc3)[C@H]2c2ccccc2)[C@@H]1COCc1ccccc1 | 15 µM (inactive) | 15 µM (inactive) | 15.8 µM (inactive) | 20.2 µM (inactive) | 15.5 µM (inactive) | 21.3 µM (inactive) | 28.5 µM (inactive) | 29.2 µM (inactive) | 20.6 µM (inactive) | 7.74 µM (inactive) | 11.3 µM (inactive) | 22.9 µM (inactive) | 24.4 | 13.7 µM (inactive) | 17.8 µM (inactive) | 21.6 µM (inactive) | 20.8 µM (inactive) | 29.2 µM (inactive) | 17.9 µM (inactive)
CCc1nc(N)nc(N)c1-c1ccc(Cl)c([N+](=O)[O-])c1 | 0.0439 µM (active) | 6.71 µM (inactive) | 0.0735 µM (active) | 18.2 µM (inactive) | 24.4 µM (inactive) | 0.0869 µM (active) | 0.611 µM (active) | 17.9 µM (inactive) | 18.4 µM (inactive) | 0.676 µM (active) | 0.0573 µM (active) | 22.6 µM (inactive) | 0.0685 | 0.417 µM (active) | 0.074 µM (active) | 1.18 µM (inactive) | 0.325 µM (active) | 0.596 µM (active) | 0.0588 µM (active)
C=C(Cl)C(Cl)(CBr)CCCC(C)C (stereo unspecified) | > 75.7 µM (inactive) | 19.4 µM (inactive) | > 100 µM (inactive) | > 100 µM (inactive) | 20.7 µM (inactive) | 9.66 µM (inactive) | 11.5 µM (inactive) | 16.4 µM (inactive) | > 100 µM (inactive) | 2.92 µM (inactive) | > 63.5 µM (inactive) | 33 µM (inactive) | > 49.3 | > 100 µM (inactive) | 20.7 µM (inactive) | 16.3 µM (inactive) | 9.98 µM (inactive) | 13.7 µM (inactive) | 4.42 µM (inactive)
COc1cc2c(cc1C[C@H]1[C@@H]3C[C@H]4c5c(c6ccccc6n5C)C[C@@H]([C@@H]3CO[C@]1(C)OC(C)=O)N4C)c1c(n2C)C2C[C@H]3C(C(C)=O)=COC[C@H]3[C@H](C1)N2C | 2.64 µM (inactive) | 3.08 µM (inactive) | 3.11 µM (inactive) | 5.46 µM (inactive) | 4.55 µM (inactive) | 2.86 µM (inactive) | 6.38 µM (inactive) | 3.62 µM (inactive) | 3.18 µM (inactive) | 0.764 µM (active) | 5.11 µM (inactive) | 3.8 µM (inactive) | 3.13 | 3.54 µM (inactive) | 3.66 µM (inactive) | 6.27 µM (inactive) | 2.84 µM (inactive) | 1.56 µM (inactive) | 1.53 µM (inactive)
C=C(C(=O)O[C@H]1C/C(C)=C/CC/C(CO)=C/[C@H]2C(=O)OC(=C)[C@H]12)C(O)CO (stereo partly specified) | 2.5 µM (inactive) | 3.37 µM (inactive) | 12.2 µM (inactive) | 17.9 µM (inactive) | 17.9 µM (inactive) | 5.98 µM (inactive) | 17.3 µM (inactive) | 7.93 µM (inactive) | 5.16 µM (inactive) | 2 µM (inactive) | 17.5 µM (inactive) | 20.5 µM (inactive) | 8.05 | 15.5 µM (inactive) | 15.2 µM (inactive) | 8.18 µM (inactive) | 4.71 µM (inactive) | 24.5 µM (inactive) | 17.9 µM (inactive)
CCOC(=O)/C=C(/OCC)[C@@H]1C(C(=O)c2ccc(Cl)cc2)[C@H]1/C(=C\C(=O)OCC)OCC (stereo partly specified) | 8.73 µM (inactive) | 95.3 µM (inactive) | > 100 µM (inactive) | > 100 µM (inactive) | > 44.4 µM (inactive) | > 100 µM (inactive) | > 100 µM (inactive) | > 40.5 µM (inactive) | > 100 µM (inactive) | 5.35 µM (inactive) | > 30.7 µM (inactive) | > 100 µM (inactive) | > 100 | 24.9 µM (inactive) | > 100 µM (inactive) | 8.79 µM (inactive) | > 100 µM (inactive) | > 100 µM (inactive) | > 51.2 µM (inactive)
Cc1cc(N(CCC#N)CCC#N)ccc1C(/N=N\c1ccc(C(=O)O)cc1)=N\NC(=O)c1cc(Cl)ccc1O | 62.8 µM (inactive) | > 100 µM (inactive) | > 100 µM (inactive) | 18.7 µM (inactive) | 26.6 µM (inactive) | 19.3 µM (inactive) | 64 µM (inactive) | 40.2 µM (inactive) | 56.6 µM (inactive) | > 100 µM (inactive) | 31.1 µM (inactive) | 29.2 µM (inactive) | > 100 | 78.7 µM (inactive) | 25.3 µM (inactive) | 22.1 µM (inactive) | > 10 µM (inactive) | 27 µM (inactive) | > 100 µM (inactive)
CNc1ncnc2c1cnn2COCC(O)CO (stereo unspecified) | > 100 µM (inactive) | > 100 µM (inactive) | > 100 µM (inactive) | > 100 µM (inactive) | > 100 µM (inactive) | > 100 µM (inactive) | > 100 µM (inactive) | > 100 µM (inactive) | > 100 µM (inactive) | > 100 µM (inactive) | > 100 µM (inactive) | > 100 µM (inactive) | > 100 | > 100 µM (inactive) | > 100 µM (inactive) | > 100 µM (inactive) | > 100 µM (inactive) | > 100 µM (inactive) | > 100 µM (inactive)
COc1cc2c(c(OC)c1OC)-c1c(cc3c(c1OC)OCO3)CC(C)C(C)(O)C2OC(=O)c1ccccc1 (stereo unspecified) | 17.7 µM (inactive) | 22.5 µM (inactive) | 34.4 µM (inactive) | 29.4 µM (inactive) | 20.2 µM (inactive) | 55.1 µM (inactive) | 69.8 µM (inactive) | 96.2 µM (inactive) | 45.5 µM (inactive) | 22 µM (inactive) | 56 µM (inactive) | 35.3 µM (inactive) | 33.2 | 31.1 µM (inactive) | 40.6 µM (inactive) | 21.1 µM (inactive) | > 100 µM (inactive) | > 100 µM (inactive) | 25.8 µM (inactive)

From ChEMBL document CHEMBL1201862, “PubChem BioAssay data set” (2004)
